These results are taken from patent US10450327B2, “Epidithiodioxopiperazine compound or its derivatives, and the use thereof” (priority 2011, dated 2019).

Common to all, as to assay type: cell-based, human
In one experiment the test system is HAECs. The note with it: up to 50 nM (100 nM for A4, A7, A9). How it is done:
For cell proliferation assay, HAECs were divided at a concentration of 4000 cells/well in a final volume of 100 μl onto a 96-well plate including a siRNA-transfection reagent mixture. After siRNA-transfected for 24 hours, the cells were serum-starved for 18 hours, and then placed in an EBM-2 basal medium supplemented with VEGF-A165 (25 ng/ml, Cat no. 293-VE, R&D systems) for additional 24 hours. The extent of cell proliferation was measured using a WST-1 cell proliferation assay kit (Roche Diagnostics, USA), and the number of cells was expressed as absorbance at 450 nm, which was averaged from 3 wells after subtracting the turbidity at 600 nm.
The cell migration assay was performed in a 24-well Transwell culture chamber (Costar; 8-μm pore size). The bottom of the filter was coated with gelatin B (1 mg/ml) and air-dried for 1 hour. HAECs (6×10^3) were added to upper chambers including siRNA-transfection complexes. After 24 hours, the siRNA-transfected HAECs were serum-starved overnight. A solution of VEGF-A (25 ng/ml) was prepared in a basal medium including 0.5% bovine serum albumin (BSA), and added to bottom chambers. The upper chamber wells were each filled with a basal medium including 0.5% BSA. The Transwell chamber was incubated for 8 hours under the condition of 37° C./5% carbon dioxide. After the incubation, the non-migrated cells at the top of the filter were removed, and the cells that migrated onto the bottom of filter were fixed and stained with 0.6% hematoxylin and 0.5% eosin. The stained cells were photographed and counted. The number of migrating cells was averaged from 3 wells.

The subject of experiment [1] is Src/ERK, β-catenin, E-cadherin. Nature of the experiment: Serum-induced signaling and E-cadherin expression, SK28 cells. Here is the method: (§1) The cells were rinsed with an ice-cold phosphate buffered saline (PBS) solution and then lysed in an extraction buffer solution containing 20 mM Hepes (pH 7.0), 1% Triton X-100, 150 mM NaCl, 10% glycerol, 1 mM EDTA, 2 mM EGTA, 1 mM DTT, 5 mM Na3VO4, 5 mM NaF, 1 mM AEBSF, aprotinin (5 μg/ml), and leupeptin (5 μg/ml). After being centrifuged at 12,000×g, the purified cell extracts were used for immunoblotting. In order to adjust the loading, the membranes were stripped by shaking them for 30 minutes at 60° C. in 67 mM Tris (pH 6.7), 2% SDS, and 100 mM 2-mercaptoethanol solution, and reprobed with an appropriate pan antibody.
(§2) This proves the peroxidase activity of GT. Again, while GT treatment in the SK28 cells reduced Src/ERK activation and β-catenin phosphorylation, it increased the expression of E-cadherin (FIG. 53B). Furthermore, GT reduced the proliferation and the migration responding to serum stimulation in both SK5 and SK28 cells (FIGS. 53C and D).

Another experiment relates to PDGFRβ and PLCγ1. As to the kind of experiment: PDGF-induced signaling, immunoblot, PrxII knocked down HASMCs. Here is the method:
as §1
In addition, the regulatory effects of GT on the PDGFRβ- and VEGFR2-mediated signaling pathway were examined. The GT treatment in HASMCs was quite different from PDGF-induced tyrosine phosphorylation that was enhanced by the PrxII knockdown (FIG. 12a). […] Conversely, the GT treatment in HAECs restored the VEGF-dependent activation of VEGFR2 and ERK that had been diminished by the PrxII knockdown (FIG. 12b). The effects of GT in vascular cell fuction were further validated.
Background: A western blot detects proteins with antibodies after separation by electrophoresis.

For the next experiment, the system named is HASMCs. The note with it: up to 100 nM (200 nM for A4, A7, A9).
For experiment [2], the system named is PrxII knocked down HASMCs. As to the kind of experiment: Intracellular hydrogen peroxide (DCF fluorescence), PrxII knocked down HASMCs. The note with it: concentration-dependent. How it is done: First, the ability of GT to eliminate intracellular hydrogen peroxide in PrxII knocked down HASMCs and HAECs was tested. The cellular hydrogen peroxide production was monitored using an oxidant-sensitive fluorescence dye (2′,7′-dihydro-chlorofluorescein diacetate, H2DCF-DA).

Experiment [3] has as its system SK-MEL-28 (SK28) melanoma cells. Nature of the experiment: Intracellular hydrogen peroxide, SK28 melanoma cells. The note with it: PrxII-deficient SK28 cells, nontoxic level of GT. How it is done:
The intracellular H2O2 level was measured using 5,6-chloromethyl-2′,7′-dichlorodihydrofluorescein diacetate (CM-DCFH-DA, Invitrogen), an oxidation-sensitive fluorescent dye. Human epidermal melanocyte, SK-MEL-5, SK-MEL-28, A375 and G361 cells (3×10^5) were grown in a 35 mm culure dish and infected with retroviruses for 24 hours. After that, the cells were serum-starved for 18 hours, and stimulated with 20% FBS for 10 minutes in a phenol red-free medium. After stimulated as described above, the cells were quickly rinsed with a Krebs-Ringer solution, and incubated with 5 μM CM-DCFH-DA for 5 minutes. 2′,7′-dichlorodihydrofluorescein (DCF) fluorescence was collected for 10 seconds using an inverted Axiovert 200 fluorescence microscope (Zeiss). The relative DCF fluorescence was calculated by averaging the fluorescence intensities of 60 to 80 cells after subtracting the background fluorescence from each image using an ImageQuant™ software (GE Healthcare). The desorbed sphenoid cells were excluded from quantification.
as §2

Structures are written as SMILES.

For `CN1C(=O)[C@]23CC4=CC=C[C@H](O)[C@H]4N2C(=O)[C@@]1(CO)SS3` [gliotoxin], the “VEGF-induced proliferation and chemotactic transmigration of HAECs, impaired by PrxII knockdown” value in the experiment on HAECs is “enhancement”. Moreover, the “expression of E-cadherin” value in experiment [1] is reported as “increased”. Besides, the “Src/ERK activation and β-catenin phosphorylation” value in experiment [1] (serum stimulation) is on record as “reduced”. In addition, the “level of PDGFRβ and PLCγ1 activation” value with PDGFRβ and PLCγ1 is “diminished to the level of stimulated control group cells”. Also, the “proliferation and chemotactic transmigration of HASMCs in response to PDGF, enhanced by PrxII knockdown” value in the experiment with HASMCs was “gradually reduced”. The “level of intracellular hydrogen peroxide increased by PDGF and PrxII knockdown” value in experiment [2] is reported as “completely canceled out”. In addition, the “level of intracellular hydrogen peroxide” value in experiment [3] is given as “reduced”.
